Measurements as given in the supplement of paper PMC10307832.

How the values were obtained:
Test in all cases: relative viability (nuclei count vs DMSO), 5 days (fraction); higher = more cells survive
GSK-J4 + Linsitinib = compound: CCOC(=O)CCNc1cc(N2CCc3ccccc3CC2)nc(-c2ccccn2)n1 [GSK-J4] + C[C@]1(O)C[C@@H](c2nc(-c3ccc4ccc(-c5ccccc5)nc4c3)c3c(N)nccn32)C1 [Linsitinib] (partner 1 µM)
In short: (§1)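 Cells from lung cancer lines were seeded into 1536-well plates and, one day later, dosed by pin tool. Treatments were either a single drug or a fixed dose of an anchor drug with five library-drug doses (not always all listed) in √10 steps. After 5 days, nuclei were stained in a one-step fixation (final 0.05% Triton X-100, 1% formaldehyde, 1 ug/ml Hoechst) and counted on 4× images, and relative viability is the treated-to-vehicle nuclei ratio, as the median of duplicate plates.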

AZ3146 + Dasatinib = compound: CN1CCC(CC1)OC2=CC(=C(C=C2)NC3=NC=C4C(=N3)N(C(=O)N4C)C5CCCC5)OC [AZ3146] + Cc1nc(Nc2ncc(C(=O)Nc3c(C)cccc3Cl)s2)cc(N2CCN(CCO)CC2)n1 [Dasatinib] (partner 0.075 µM)
In short: as §1

GSK-J4 + Bortezomib = compound: CCOC(=O)CCNc1cc(N2CCc3ccccc3CC2)nc(-c2ccccn2)n1 [GSK-J4] + CC(C)C[C@H](NC(=O)[C@H](Cc1ccccc1)NC(=O)c1cnccn1)B(O)O [Bortezomib] (partner 0.002 µM)
In short: as §1

AZ3146 + Palbociclib = compound: CN1CCC(CC1)OC2=CC(=C(C=C2)NC3=NC=C4C(=N3)N(C(=O)N4C)C5CCCC5)OC [AZ3146] + CC(=O)c1c(C)c2cnc(Nc3ccc(N4CCNCC4)cn3)nc2n(C2CCCC2)c1=O [Palbociclib] (partner 0.5 µM)
In short: as §1

Cell Line	relative viability (GSK-J4 + Linsitinib; first compound 0.5 µM)	relative viability (GSK-J4 + Linsitinib; first compound 1.581 µM)	relative viability (GSK-J4 + Linsitinib; first compound 15.81 µM)	relative viability (GSK-J4 + Linsitinib; first compound 50 µM)	relative viability (AZ3146 + Dasatinib; first compound 0.08 µM)	relative viability (AZ3146 + Dasatinib; first compound 0.253 µM)	relative viability (AZ3146 + Dasatinib; first compound 0.8 µM)	relative viability (AZ3146 + Dasatinib; first compound 2.53 µM)	relative viability (AZ3146 + Dasatinib; first compound 8 µM)	relative viability (GSK-J4 + Bortezomib; first compound 0.5 µM)	relative viability (GSK-J4 + Bortezomib; first compound 1.581 µM)	relative viability (GSK-J4 + Bortezomib; first compound 15.81 µM)	relative viability (GSK-J4 + Bortezomib; first compound 50 µM)	relative viability (AZ3146 + Palbociclib; first compound 0.08 µM)	relative viability (AZ3146 + Palbociclib; first compound 0.253 µM)	relative viability (AZ3146 + Palbociclib; first compound 0.8 µM)	relative viability (AZ3146 + Palbociclib; first compound 2.53 µM)	relative viability (AZ3146 + Palbociclib; first compound 8 µM)	relative viability (GSK-J4 + Linsitinib; first compound 5 µM)	relative viability (GSK-J4 + Bortezomib; first compound 5 µM)
HCC-366	0.622	0.547	0.478	0.437	0.483	0.57	0.56	0.588	0.572	1	1.02	1.01	0.96	0.312	0.398	0.419	0.391	0.271	–	–
HCC-827	0.932	0.955	0.902	0.87	0.381	0.345	0.409	0.333	0.218	1.02	0.95	1.11	1.04	0.544	0.471	0.467	0.421	0.516	0.889	0.883
HOP-62	0.952	0.78	0.835	0.855	0.603	0.618	0.609	0.646	0.656	0.688	0.532	0.74	0.823	0.357	0.5	0.438	0.436	0.447	0.83	0.73
IA-LM	0.556	0.288	0.463	0.201	–	–	–	–	–	0.709	0.816	0.763	0.131	–	–	–	–	–	0.634	0.775
LC-2-ad	0.795	0.831	0.769	0.839	0.549	0.746	0.584	0.665	0.527	0.932	0.907	1.01	0.94	0.419	0.546	0.475	0.455	0.453	0.794	0.749
LCLC-97TM1	–	–	0.23	0.146	0.669	0.755	0.762	0.785	0.812	0.981	–	0.449	0.526	0.245	0.247	0.232	0.225	0.188	0.213	0.393
LK-2	0.69	0.449	0.537	0.602	0.376	0.218	0.279	0.25	0.322	–	–	–	–	–	–	0.633	0.591	0.71	0.774	–
NCI-H358	0.682	0.513	0.717	0.857	0.2	0.135	0.149	0.153	0.209	–	–	–	–	0.141	0.139	0.123	0.135	0.101	0.746	–
NCI-H522	–	–	–	–	0.721	0.73	0.863	0.815	1.02	–	–	–	–	1.15	0.902	1.14	0.894	1.1	–	–
NCI-H596	1	1.08	0.938	1.02	0.56	0.582	0.581	0.636	0.538	0.999	0.945	0.976	1	–	–	–	–	–	1.07	0.99
NCI-H1299	0.979	0.881	0.962	0.988	–	–	–	–	–	1.06	0.94	0.98	0.985	–	–	–	–	–	0.813	0.876
NCI-H1395	1.06	1.22	0.813	0.745	0.415	0.381	0.327	0.42	0.398	–	–	–	–	0.619	0.603	–	0.619	0.647	0.877	–
NCI-H1563	1.15	1.2	1.18	1.24	0.482	0.48	0.441	0.422	0.448	0.809	0.952	0.66	0.808	–	–	–	–	–	1.22	0.776
NCI-H1623	–	–	–	–	0.482	0.455	0.498	0.601	0.556	–	–	–	–	–	–	–	–	–	–	–
NCI-H1648	–	–	–	–	–	–	–	–	–	–	–	–	–	–	–	0.27	0.298	0.232	–	–
NCI-H1650	–	–	–	–	0.318	0.315	0.37	0.265	0.225	0.17	0.164	0.174	0.232	0.301	0.343	0.366	0.352	0.283	–	0.219
NCI-H1703	0.636	0.276	0.364	0.761	–	–	–	–	–	0.377	0.377	0.355	0.436	–	–	–	–	–	0.336	0.234
NCI-H1793	0.973	0.71	0.594	0.493	0.303	0.412	0.404	0.348	0.423	–	–	–	–	0.269	0.292	0.311	0.374	0.321	0.94	–
NCI-H1944	1.2	0.977	1.22	1.2	0.171	0.194	0.214	0.239	0.229	–	–	–	–	0.302	0.322	0.298	0.39	0.326	1.22	–
NCI-H2170	–	–	–	–	0.497	0.455	0.598	0.61	0.491	–	–	–	–	0.341	0.361	0.394	0.398	0.377	–	–
NCI-H2342	–	–	–	–	0.293	0.275	0.29	0.29	0.345	–	–	–	–	0.527	0.502	0.582	0.565	0.501	–	–
SK-MES-1	0.994	0.975	0.993	0.994	0.42	0.311	0.387	0.316	0.258	–	–	–	–	0.331	0.344	0.346	0.291	0.305	0.827	–
SW 900	–	–	–	–	0.479	0.456	0.503	0.666	0.337	–	–	–	–	0.447	–	0.502	0.489	0.589	–	–
